Test results taken from article PMC10882719 (Frontiers in Neuroscience, 2024).
Like-named read-outs stand apart in the source and are kept apart here.

Experiments:
Assay type in all cases: cell-based
[1] = molecular target: T1, 168 GPCRs (Homo sapiens, UniProt Q96G91); conditions: P2RY11
T1 construct: host or cells: PathHunter cell lines
T1 sequence (Q96G91 1-374): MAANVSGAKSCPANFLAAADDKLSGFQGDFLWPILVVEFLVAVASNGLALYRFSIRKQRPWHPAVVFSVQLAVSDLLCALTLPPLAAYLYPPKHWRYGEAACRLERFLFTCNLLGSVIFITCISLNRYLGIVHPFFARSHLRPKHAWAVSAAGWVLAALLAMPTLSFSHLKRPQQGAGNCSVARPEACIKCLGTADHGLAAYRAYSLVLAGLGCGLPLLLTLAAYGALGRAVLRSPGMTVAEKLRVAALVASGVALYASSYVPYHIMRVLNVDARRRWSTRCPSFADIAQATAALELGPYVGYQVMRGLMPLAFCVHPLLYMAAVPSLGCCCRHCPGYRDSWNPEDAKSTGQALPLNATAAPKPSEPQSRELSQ

[2] = molecular target: T2, 168 GPCRs (Homo sapiens, UniProt P30988)
T2 construct: host or cells: PathHunter cell lines
T2 sequence (P30988 25-474): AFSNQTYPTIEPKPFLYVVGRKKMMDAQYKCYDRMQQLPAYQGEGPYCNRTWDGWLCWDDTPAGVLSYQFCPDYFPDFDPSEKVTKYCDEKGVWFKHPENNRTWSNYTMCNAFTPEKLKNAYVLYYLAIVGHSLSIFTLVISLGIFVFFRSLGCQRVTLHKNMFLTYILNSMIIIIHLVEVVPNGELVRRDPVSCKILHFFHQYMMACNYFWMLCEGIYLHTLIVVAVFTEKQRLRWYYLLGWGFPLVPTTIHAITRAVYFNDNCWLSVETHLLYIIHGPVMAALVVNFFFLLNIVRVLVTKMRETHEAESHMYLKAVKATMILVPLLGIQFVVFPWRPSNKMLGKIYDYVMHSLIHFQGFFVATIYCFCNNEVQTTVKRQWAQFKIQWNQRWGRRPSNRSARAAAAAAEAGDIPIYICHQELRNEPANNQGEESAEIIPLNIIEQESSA

[3] = molecular target: T3, 168 GPCRs (Homo sapiens, UniProt P25116); conditions: F2R
T3 construct: host or cells: PathHunter cell lines
T3 sequence (P25116 22-425): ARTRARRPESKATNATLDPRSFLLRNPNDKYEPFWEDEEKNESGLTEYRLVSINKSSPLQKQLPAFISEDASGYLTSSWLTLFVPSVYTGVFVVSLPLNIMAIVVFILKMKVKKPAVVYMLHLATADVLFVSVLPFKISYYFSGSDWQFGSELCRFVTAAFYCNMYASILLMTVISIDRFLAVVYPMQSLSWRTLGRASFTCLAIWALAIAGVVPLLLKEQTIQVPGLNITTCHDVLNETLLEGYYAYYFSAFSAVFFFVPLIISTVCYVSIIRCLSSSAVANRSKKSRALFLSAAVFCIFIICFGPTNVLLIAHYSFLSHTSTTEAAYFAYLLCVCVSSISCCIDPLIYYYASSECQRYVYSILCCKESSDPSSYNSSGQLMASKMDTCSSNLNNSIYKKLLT

[4] = molecular target: T4, 168 GPCRs (Homo sapiens, UniProt P30559); conditions: OXTR
T4 construct: host or cells: PathHunter cell lines
T4 sequence (P30559 1-389): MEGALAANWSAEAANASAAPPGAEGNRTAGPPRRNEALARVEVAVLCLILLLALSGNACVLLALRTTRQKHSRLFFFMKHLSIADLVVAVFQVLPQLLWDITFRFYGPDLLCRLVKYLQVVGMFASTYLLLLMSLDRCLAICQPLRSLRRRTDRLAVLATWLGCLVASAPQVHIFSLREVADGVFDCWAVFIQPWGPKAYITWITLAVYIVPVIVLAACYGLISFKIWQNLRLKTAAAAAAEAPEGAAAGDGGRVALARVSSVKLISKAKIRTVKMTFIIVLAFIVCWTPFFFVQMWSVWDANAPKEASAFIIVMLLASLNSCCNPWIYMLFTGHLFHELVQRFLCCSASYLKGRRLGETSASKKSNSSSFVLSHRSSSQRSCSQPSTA

Structure (SMILES)	% Agonist Activity ([1]; Conc 1 uM)	% Antagonist Activity ([1]; Conc 1 uM)	% Agonist Activity ([1]; Conc 10 uM)	% Antagonist Activity ([1]; Conc 10 uM)	% Agonist Activity ([2]; CALCR, 1 uM)	% Antagonist Activity ([2]; CALCR, 1 uM)	% Agonist Activity ([2]; CALCR, 10 uM)	% Antagonist Activity ([2]; CALCR, 10 uM)	% Agonist Activity ([2]; CALCR-RAMP2, 1 uM)	% Antagonist Activity ([2]; CALCR-RAMP2, 1 uM)	% Agonist Activity ([2]; CALCR-RAMP2, 10 uM)	% Antagonist Activity ([2]; CALCR-RAMP2, 10 uM)	% Agonist Activity ([2]; CALCR-RAMP3, 1 uM)	% Antagonist Activity ([2]; CALCR-RAMP3, 1 uM)	% Agonist Activity ([2]; CALCR-RAMP3, 10 uM)	% Antagonist Activity ([2]; CALCR-RAMP3, 10 uM)	% Agonist Activity ([3]; 1 uM)	% Antagonist Activity ([3]; 1 uM)	% Agonist Activity ([3]; 10 uM)	% Antagonist Activity ([3]; 10 uM)	other results
CNC(C)C(=O)c1ccc2c(c1)OCO2 (stereo not drawn) [methylone]	0.5%	2.7%	-0.3%	6.6%	-0.3%	5.4%	-0.2%	-4.4%	0.9%	-10.6%	1.6%	-19.6%	7.9%	-8.9%	7.1%	-3.3%	-2.5%	-11.6%	0.2%	-11.4%	% Agonist Activity ([4]; Conc 1 uM): -0.6%; % Antagonist Activity ([4]; Conc 1 uM): 12.7%; % Agonist Activity ([4]; Conc 10 uM): -0.5%; % Antagonist Activity ([4]; Conc 10 uM): 6.9%
CNC(C)Cc1ccc2c(c1)OCO2 (stereo not drawn) [MDMA, 3,4-Methylenedioxy methamphetamine, reference compound]	0.3%	17.9%	0.7%	9%	-3.5%	-8.1%	-2.4%	6.8%	-0.3%	12.8%	2.9%	15.7%	-18.3%	-3.6%	-1.4%	-1.3%	-0.7%	1.2%	-1.2%	5.9%	% Agonist Activity ([4]; Conc 1 uM): -0.2%; % Antagonist Activity ([4]; Conc 1 uM): 3.7%; % Agonist Activity ([4]; Conc 10 uM): 0.6%; % Antagonist Activity ([4]; Conc 10 uM): 8.2%
